The values that follow come from EPA's ToxRefDB 2.

Series [1] deals with rat. The settings on record: Sub-acute dermal toxicity, sprague dawley, Topical, dose end: 21 day, group: systemic, systemic / in life observation / clinical signs / desquamation + systemic / in life observation / clinical signs / erythema + systemic / ….
A further series concerns dog. Particulars: Chronic toxicity; beagle; Oral; Feed; dose end: 52 week; group: systemic; systemic / clinical chemistry / albumin / albumin + systemic / clinical chemistry / calcium / calcium + systemic / clinical chemistry / ….
The subject of series [2] is rabbit. The settings on record: Prenatal developmental toxicity study, new zealand white, Oral, Capsule, dose end: 18 GD.
The test system of series [3] is rabbit. Particulars: Prenatal developmental toxicity study, new zealand white, Dermal, Topical, dose end: 18 GD.
In another series the test system is mouse. The settings on record: Subchronic oral toxicity in rodents, cd1, Feed, dose end: 13 week, group: systemic.
For series [4], the system named is rat. Particulars: Subchronic oral toxicity in rodents, other, Feed, dose end: 13 week, group: systemic, systemic / clinical chemistry / urea nitrogen / urea.
Series [5] relates to rat. Particulars: Prenatal developmental toxicity study, fischer, Oral, Gavage/Intubation, dose end: 15 GD.
Series [6] deals with rat. The settings on record: Subchronic oral toxicity in rodents, Feed, dose end: 13 week, group: systemic.
Where [7] appears, read: group: developmental, developmental / developmental malformation / bone / supernumerary + developmental / developmental malformation / gallbladder / [other] + ….
[8] abbreviates: group: maternal, reproductive / reproductive performance / aborted / aborted + reproductive / reproductive performance / postimplantation loss / ….
Setting [9] is: group: maternal, systemic / in life observation / body weight / body weight + systemic / in life observation / body weight / body weight gain + systemic / in….
The mark [10] stands for this setting: group: developmental, developmental / developmental malformation / bone / supernumerary + developmental / developmental malformation / bone / unossified + ….
[11] abbreviates: group: maternal, systemic / in life observation / body weight / body weight gain.
Setting [12] is: systemic / in life observation / body weight / body weight.
Where [13] appears, read: systemic / in life observation / body weight / body weight + systemic / organ weight / liver / relative to body weight.
[14] abbreviates: group: developmental, developmental / developmental malformation / bone / ossification sites + developmental / developmental malformation / bone / supernumerary.
Setting [15] is: group: maternal, systemic / in life observation / body weight / body weight.
[16] abbreviates: systemic / in life observation / body weight / body weight + systemic / clinical chemistry / urea nitrogen / urea + systemic / urinalysis / ….

Broadly, the LOAEL is the lowest dose or exposure tested at which an adverse effect was seen. For orientation: NOAEL means the highest dose or exposure tested at which no adverse effect was seen.

For `ClCCCCCCCl` [1,6-Dichlorohexane], in the series with rat [1], the LEL is 100 mg/kg/day, the lowest observed adverse effect level (LOAEL) is 100 mg/kg/day, the NEL was less than 100 mg/kg/day and the no-observed-adverse-effect level (NOAEL) was less than 100 mg/kg/day.

Turning to `CCNc1nc(Cl)nc(NC(C)(C)C#N)n1` [Cyanazine], the LEL with dog stood at 3.02 mg/kg/day; in the series on rabbit [2] (setting [7]), 1 mg/kg/day; in the series with rabbit [2] (setting [9]), 1 mg/kg/day; in the series on rabbit [3] (group: developmental, systemic / in life observation / body weight / fetal weight), 573 mg/kg/day; in the series on rabbit [3] (setting [11]), 96 mg/kg/day; in the series on mouse (setting [13]), 75 mg/kg/day. The LEL in the series with rat [4] is 0.075 mg/kg/day; in the series with rat [5] (setting [14]) it was 5 mg/kg/day; with rat [5] (setting [15]) it was 5 mg/kg/day; in the series on rat [6] (setting [16]) it was 0.005 mg/kg/day. Besides, the LOAEL in the series on dog stood at 3.02 mg/kg/day; in the series on rabbit [2] (group: developmental, developmental / developmental malformation / bone / absent + developmental / developmental malformation / bone / supernumerary), 2 mg/kg/day; in the series on rabbit [2] (setting [8]) it was 2 mg/kg/day; in the series with rabbit [3] (group: developmental, developmental / developmental malformation / bone / supernumerary + developmental / developmental malformation / bone / unossified) it was 955 mg/kg/day; in the series with rabbit [3] (setting [11]), 96 mg/kg/day; with mouse (setting [12]), 75 mg/kg/day. Moreover, the lowest-observed-adverse-effect level (LOAEL) with rat [4] was 0.075 mg/kg/day; in the series on rat [5] (setting [14]), 5 mg/kg/day; in the series with rat [5] (setting [15]) it was 5 mg/kg/day; in the series on rat [6] (setting [12]) it was 0.005 mg/kg/day. The NEL in the series with dog was 0.72 mg/kg/day; with rabbit [2] (setting [7]), less than 1 mg/kg/day; with rabbit [2] (setting [9]), less than 1 mg/kg/day; with rabbit [3] (setting [10]), 286 mg/kg/day; with rabbit [3] (setting [11]), less than 96 mg/kg/day; with mouse (setting [13]), 7.5 mg/kg/day. Also, the NEL was less than 0.075 mg/kg/day in the series with rat [4], less than 5 mg/kg/day in the series with rat [5] (setting [14]), less than 5 mg/kg/day in the series with rat [5] (setting [15]) and less than 0.005 mg/kg/day with rat [6] (setting [16]). Moreover, the no observed adverse effect level (NOAEL) with dog was 0.72 mg/kg/day; in the series on rabbit [2] (group: developmental, developmental / developmental malformation / bone / absent + developmental / developmental malformation / bone / supernumerary + …), 1 mg/kg/day; in the series with rabbit [2] (setting [8]), 1 mg/kg/day; in the series with rabbit [3] (setting [10]) it was 573 mg/kg/day; in the series on rabbit [3] (setting [11]) it was less than 96 mg/kg/day; in the series with mouse (setting [13]), 7.5 mg/kg/day. For the same compound, the no-observed-adverse-effect level (NOAEL) was less than 0.075 mg/kg/day with rat [4], less than 5 mg/kg/day in the series on rat [5] (setting [14]), less than 5 mg/kg/day with rat [5] (setting [15]) and less than 0.005 mg/kg/day in the series on rat [6] (setting [12]).
